The text below walks through data of ChEMBL document CHEMBL1151644, “Alkaloids and coumarins of Casimiroa edulis” (1985).

Experiment [1] deals with Rattus norvegicus. The experiment is described as follows: Diuretic activity in rat at 125 mg/kg. In kind it is functional, Urine.
Experiment [2] concerns Rattus norvegicus. The experiment is described as follows: Antiinflammatory activity against carrageenan-induced hind paw edema in rat at 100 mg/kg. Format: functional. For orientation: Carrageenan injected into the paw causes an acute inflammation.

Consider `COc1c2ccoc2c(OC)c2oc(=O)ccc12` [ISOPIMPINELLIN], for which the Activity was 84% in experiment [1] and 30.4% in experiment [2].
On to `CCCCCCCCCCCCCCCCCCCCCCCCCCCCCCC` [HENTRIACONTANE], for which the Activity in experiment [1] is recorded as 84%; in experiment [2] it was 30.4%.
